Measurements published in patent publication US6683077B2, “2-Amino-benzoxazinones for the treatment of viral infections” (G.D. Searle & Co., priority 1996, dated 2004).

Tests used:
[1] = tested on: HCMV engineered virus RC256; assay: microbe, parasite or virus in culture; assay type: cell-based, human cytomegalovirus; conditions: Human betaherpesvirus 5, Fibroblast, read-out: Antiviral Activity RC256, first value (EC50)
[2] = biological target: T1, Human leukocyte elastase (HLE) (Homo sapiens, UniProt P08246); assay: Human leukocyte elastase assay; assay type: biochemical
T1 construct: gift of R. Senior, Washington University
T1 sequence (P08246 30-267): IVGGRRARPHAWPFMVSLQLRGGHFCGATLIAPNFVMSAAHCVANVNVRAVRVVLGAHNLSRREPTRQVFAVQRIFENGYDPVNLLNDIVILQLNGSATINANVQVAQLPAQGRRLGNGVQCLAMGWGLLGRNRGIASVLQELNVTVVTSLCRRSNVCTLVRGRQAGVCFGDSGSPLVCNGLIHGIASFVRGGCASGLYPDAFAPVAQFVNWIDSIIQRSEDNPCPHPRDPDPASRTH
Experimental: Human leukocyte elastase (HLE) (gift of R. Senior, Washington University) was dissolved in saline at 1 mg/ml and further diluted 1/20 in assay buffer (0.2 M Tris, pH 8.0) before use. 10 μl of test compound in DMSO (or DMSO alone), 100 μl of assay buffer and 50 μl of enzyme were added to 96 well plates, mixed and pre-incubated for 30 minutes at ambient temperature. Reaction was initiated by addition of 40 μl of 2.5 mM methoxysuccinyl-Ala-Ala-Pro-Val-p-nitroanilide (Sigma; 25 mM in DMSO diluted 1/10 in assay buffer before use). The increase in absorbance at 405 nm was monitored for 10 minutes with a Biotek EL340 plate reader.

[3] = @ 100 (concentration unit not given)
[4] = @ 10 (concentration unit not given)

SMILES	EC50 [1]	HLE, % @ concentration [2, 3]	HLE, % @ concentration [2, 4]	HLE, % @ concentration ([2]; @ 1 (concentration unit not given))
Cc1c(NC(=O)OC(C)(C)C)ccc2nc(N[C@@H](C)C(=O)OC(C)(C)C)oc(=O)c12 [Example 6, N-[6-[[(1,1-Dimethylethoxy]carbonyl]amino]-5-methyl-4-oxo-4H-3,1-benzoxazin-2-yl]-L-alanine, 1,1-dimethylethyl Ester]	> 100 µM	29% @ 100	–	–
COC(=O)[C@H](Cc1ccc(OC)cc1)Nc1nc2ccc(NC(=O)OC(C)(C)C)c(C)c2c(=O)o1 [Example 6c, N-[6-[[(1,1-Dimethylethoxy)carbonyl]amino]-5-methyl-4-oxo-4H-3,1-benzoxazin-2-yl]-O-methyl-L-tyrosine, methyl ester]	59 µM	29% @ 100	–	–
COc1ccc(C[C@H](Nc2nc3ccc(NC(=O)OC(C)(C)C)c(C)c3c(=O)o2)C(=O)N(C)Cc2ccccc2)cc1 [Example 6dd, 1,1-Dimethylethyl[2-[[1S-[(4-methoxyphenyl)methyl]-2-[methyl(phenylmethyl)amino]-2-oxoethyl]amino]-5-methyl-4-oxo-4H-3,1-benzoxazin-6-yl]carbamate]	18 µM	–	42% @ 10	–
Cc1c(NC(=O)OC(C)(C)C)ccc2nc(N[C@@H](Cc3ccc(OCCN4CCCC4)cc3)C(=O)N(C)Cc3ccccc3)oc(=O)c12 [Example 6ff, 1,1-Dimethylethyl[5-methyl-2-[[2-[methyl(phenylmethyl)amino]-2-oxo-1S-[[4-[2-(1-pyrrolidinyl)ethoxy]phenyl]methyl]ethyl]amino]-4-oxo-4H-3,1-benzoxazin-6-yl]carbamate]	50 µM	75% @ 100	–	–
Cc1c(NC(=O)OC(C)(C)C)ccc2nc(N[C@@H](C)c3ccccc3)oc(=O)c12 [Example 6m, 6-[[(1,1-Dimethylethoxy)carbonyl]amino]-5-methyl-2-[[(1S)-phenylethyl]amino]-4H-3,1-benzoxazin-4-one]	50 µM	82% @ 100	–	–
COC(=O)[C@H](CCS(C)(=O)=O)Nc1nc2ccc(NC(=O)OC(C)(C)C)c(C)c2c(=O)o1 [Example 6u, N-[6-[[(1,1-Dimethylethoxy)carbonyl]amino]-5-methyl-4-oxo-4H-3,1-benzoxazin-2-yl]-L-methionine sulfone, methyl ester]	100 µM	29% @ 100	–	–
COC(=O)C1(Nc2nc3ccc(NC(=O)OC(C)(C)C)c(C)c3c(=O)o2)CC1 [Example 6x, N-[6-[[(1,1-Dimethylethoxy)carbonyl]amino]-5-methyl-4-oxo-4H-3,1-benzoxazin-2-yl]-1-cyclopropanecarboxylic acid, methyl ester]	> 100 µM	–	25% @ 10	–
Cc1c(NC(=O)OC(C)(C)C)ccc2nc(N[C@H]3CCN(c4ccc(C#N)cc4)C3=O)oc(=O)c12 [Example 6y]	67 µM	–	25% @ 10	–
COc1ccc(C[C@H](Nc2nc3ccc(CNC(=O)OC(C)(C)C)c(C)c3c(=O)o2)C(=O)N2CCCC2)cc1 [Example 7g, 1,1-Dimethylethyl[[2-[[1S-[(4-methoxyphenyl)methyl]-2-oxo-2-(1-pyrrolidinyl)ethyl]amino]-5-methyl-4-oxo-4H-3,1-benzoxazin-6-yl]methyl]carbamate]	20 µM	–	39% @ 10	–
Cc1c(CNC(=O)OC(C)(C)C)ccc2nc(N[C@@H](Cc3ccccc3)C(=O)N(C)Cc3ccccc3)oc(=O)c12 [Example 7j, 1,1-Dimethylethyl[[5-methyl-2-[[2-[methyl(phenylmethyl)amino]-2-oxo-1S-(phenylmethyl)ethyl]amino]-4-oxo-4H-3,1-benzoxazin-6-yl]methyl]carbamate]	14 µM	–	31% @ 10	–
Cc1c(CNC(=O)OC(C)(C)C)ccc2nc(N[C@@H](Cc3ccccc3)C(=O)N(C)c3ccccc3)oc(=O)c12 [Example 7m, 1,1-Dimethylethyl([5-methyl-2-[[2-(methylphenylamino)-2-oxo-1S-(phenylmethyl)ethyl]amino]-5-methyl-4-oxo-4H-3,1-benzoxazin-6-yl]methyl]carbamate]	5.2 µM	–	55% @ 10	–
CCN(C(=O)[C@H](Cc1ccccc1)Nc1nc2ccc(CNC(=O)OC(C)(C)C)c(C)c2c(=O)o1)c1ccccc1 [Example 7n]	16 µM	–	16% @ 10	–
COc1ccc(C[C@H](Nc2nc3ccc(CNC(=O)OCc4cccnc4)c(C)c3c(=O)o2)C(=O)N(C)Cc2ccccc2)cc1 [Example 18, 3-Pyridinylmethyl[[2-[[1S-[(4-methoxyphenyl)methyl]-2-[methyl(phenylmethyl)amino]-2-oxoethyl]amino]-5-methyl-4-oxo-4H-3,1-benzoxazin-6-yl]methyl]carbamate]	14 µM	–	–	–
COc1ccc(C[C@H](Nc2nc3ccc(CNC(=O)OCCN4CCCCC4)c(C)c3c(=O)o2)C(=O)N(C)Cc2ccccc2)cc1 [Example 18a, 2-(1-Piperidinyl)ethyl[[2-[[1S-[(4-methoxyphenyl)methyl]-2-[methyl(phenylmethyl)amino]-2-oxoethyl]amino]-5-methyl-4-oxo-3,1-benzoxazin-6-yl]methyl]carbamate]	5 µM	–	–	–
COc1ccc(C[C@H](Nc2nc3ccc(CNC(=O)OCCN4CCOCC4)c(C)c3c(=O)o2)C(=O)N(C)Cc2ccccc2)cc1 [Example 18b, 2-(4-Morpholinyl)ethyl[[2-[[1S-[(4-methoxyphenyl)methyl]-2-[methyl(phenylmethyl)amino]-2-oxoethyl]amino]-5-methyl-4-oxo-3,1-benzoxazin-6-yl]methyl]carbamate]	12 µM	–	–	–
COc1ccc(C[C@H](Nc2nc3ccc(CNC(=O)OCCN(C)C)c(C)c3c(=O)o2)C(=O)N(C)Cc2ccccc2)cc1 [Example 18c, 2-(Dimethylamino)ethyl[[2-[[1S-[(4-methoxyphenyl)methyl]-2-[methyl(phenylmethyl)amino]-2-oxoethyl]amino]-5-methyl-4-oxo-3,1-benzoxazin-6-yl]methyl]carbamate]	15 µM	–	–	–
Cc1c(CNC(=O)OCc2cccnc2)ccc2nc(N[C@@H](Cc3ccccc3)C(=O)N(C)Cc3ccccc3)oc(=O)c12 [Example 18e, 3-Pyridinylmethyl[[5-methyl-2-[[2-[methyl(phenylmethyl)amino]-2-oxo-1S-(phenylmethyl)ethyl]amino]-4-oxo-4H-3,1-benzoxazin-6-yl]methyl]carbamate]	7 µM	–	–	–
Cc1c(CNC(=O)OC2CCCC2)ccc2nc(N[C@@H](Cc3ccccc3)C(=O)N(C)Cc3ccccc3)oc(=O)c12 [Example 18f, Cyclopentyl[[5-methyl-2-[[2-[methyl(phenylmethyl)amino]-2-oxo-1S-(phenylmethyl)ethyl]amino]-4-oxo-4H-3,1-benzoxazin-6-yl]methyl]carbamate]	–	–	–	59% @ 1
Cc1c(CNC(=O)OCCN(C)C)ccc2nc(N[C@@H](Cc3ccccc3)C(=O)N(C)Cc3ccccc3)oc(=O)c12 [Example 18g, 2-(Dimethylamino)ethyl[[5-methyl-2-[[2-[methyl(phenylmethyl)amino]-2-oxo-1S-(phenylmethyl)ethyl]amino]-4-oxo-4H-3,1-benzoxazin-6-yl]methyl]carbamate]	13 µM	–	–	–
Cc1c(CNC(=O)OCCN2CCOCC2)ccc2nc(N[C@@H](Cc3ccccc3)C(=O)N(C)Cc3ccccc3)oc(=O)c12 [Example 18h]	11 µM	–	–	–
